The text below walks through data of patent US9605050B2, “Glycoprotein synthesis and remodeling by enzymatic transglycosylation” (UNIVERSITY OF MARYLAND, BALTIMORE, priority 2006, dated 2017).

Experiment [1] addresses T1, Endo-A (Glutamicibacter protophormiae, UniProt Q9ZB22). Description: Endo-A catalyzed transglycosylation of synthetic oligosaccharide oxazolines (donor substrates) with GlcNAc-peptide/protein acceptors. Particulars: for donor substrate activity in Endo-A catalyzed transglycosylation: GlcNAc-tripeptide acceptor (27 or 40), phosphate buffer pH 6.5; for relative transglycosylation rates (order): acceptor 27, same conditions; for donor substrate activity in Endo-A transglycosylation to large acceptor: acceptor GlcNAc-C34, donor/acceptor 5:1. The experiment is classed as biochemical, Arthrobacter protophormiae. An excerpt: To test the transglycosylation potential of the synthetic oligosaccharide oxazolines, a small GlcNAc-tripeptide acceptor, Asn(GlcNAc)-Ile-Thr was synthesized, which represents the minimum consensus sequence for the N24 and N38 N-glycosylation sites in erythropoietin, an important therapeutic glycoprotein for the treatment of anemia.[25] […] As expected, the Endo-A catalyzed reaction of oxazolines 1 and 2 with the GlcNAc-peptide 27 (donoracceptor 3:1) proceeded smoothly in a phosphate buffer (pH 6.5) to give the corresponding N-glycopeptides 28 and 29 in 63 and 86% yields, respectively. […] Thus incubation of 3 and acceptor 27 (ratio 3:1) in the presence of Endo-A gave glycopeptide 30 carrying the N-linked tetrasaccharide moiety in 72% isolated yield. […] The Endo-A catalyzed reaction of 4 with acceptor 27 (3:1) afforded the modified glycopeptide 31 in 55% isolated yield.
(§1) In all cases, the newly formed glycosidic bond in the resulting glycopeptides 28, 29, 30, and 31 was determined by 2D NMR analysis (data not shown) to be a β-1,4-glycosidic linkage, confirming the previous conclusion that the Endo-A catalyzed transglycosylation using oligosaccharide oxazoline as the donor substrates proceeded in a regio- and stereospecific manner.[11]
Next, the structurally related disaccharide oxazolines 5-7 were tested. […] Despite this, the enzyme could tolerate selective modification on the mannose moiety, for example, attachment of additional sugar moieties at the 3′,6′-positions and even an aromatic group at the 6′-position.
(§2) This led to the synthesis of the large glycopeptide 32 that contains the core N-linked tetrasaccharide (75% yield) and glycopeptide 33 which carries a modified trisaccharide (68%) when an excess oxazoline donor (donor/acceptor 5:1) was used. […] Finally, we also tested whether Endo-A could hydrolyze the resulting “ground-state” glycopeptides 28-33 carrying the N-linked core tri-, tetra-, and pentasaccharide, respectively.
A mixture of the respective oligosaccharide oxazoline (10-30 μmol) and the GlcNAc-tripeptide 27 (3 molar equivalents of the donor) or the GlcNAc-C34[7] (5 molar equivalents of the donor) in a phosphate buffer (50 mM, pH 6.5, 0.5-1 mL) was incubated at 25° C. with the enzyme Endo-A (100 mU). The oxazoline derivative was added in portions during the reaction. The reaction was monitored by analytical HPLC by taking aliquots at intervals. It was observed that the transglycosylation reaction with the disaccharide oxazoline derivatives 1 and 4 proceeded slowly and took more than 48 h for reaching the plateau, while the transglycosylation with the tetrasaccharide oxazoline 2 proceeded quickly and would be complete within 2 h. The reaction was stopped by heating in a boiling water bath for 3 min when the peak of the transglycosylation product reached the maximum. The product was purified by preparative HPLC on a Waters preparative column (Symmetry 300, 19×300 mm) to afford the respective glycopeptide, which was characterized by NMR and ESI-MS).
To examine whether the endoglycosidase Endo-A is able to recognize the synthetic nonnatural sugar oxazoline for trans-glycosylation, a model reaction was carried out with a small GlcNAc-peptide, Ac-Asn(GlcNAc)-Ile-Thr (40),[9] as the acceptor, as shown in FIG. 11. The enzymatic reaction was monitored by reverse-phase HPLC. It was observed that the reaction between 39 and 40 (molar ratio 2:1) occurred quickly in the presence of Endo-A, while no ligation would occur in the absence of the enzyme. The glycosylation of the acceptor 40 with oxazoline 39 under the catalysis of Endo-A was essentially complete within 30 min to form the glycopeptide 41, which was isolated in 98% yield. The identity of the glycopeptide was characterized by ESI-MS and NMR.
A mixture of the hexasaccharide oxazoline 39 (0.69 mg, 0.68 μmol) and the GlcNAc-tripeptide 40 (0.2 mg, 0.34 μmol) in a phosphate buffer (50 mM, pH 6.5, 100 μl) was incubated at 23° C. with the enzyme Endo-A (200 mU). […]

In experiment [2] the target is T1, Endo-A. The description is as above. The experiment is classed as biochemical, Arthrobacter protophormiae. The following applies: acceptor GlcNAc-RB (43), donor/acceptor 2:1, pH 6.5, 23° C., Endo-A 200 mU.
In the next experiment the test system is Bacillus chitinase. Particulars: cited from earlier work.
The target of experiment [3] is T1, Endo-A. Nature of the experiment: Endo-A catalyzed hydrolysis of oxazolines and of the resulting glycopeptides/glycoprotein. The experiment is classed as biochemical, Arthrobacter protophormiae. Particulars: glycopeptides: in the presence of large amount of Endo-A. On the procedure:
as §1, §2
This is understandable because glycoprotein 44 carries a nonnatural N-glycan and Endo-A is known to hydrolyze only high-mannose type natural N-glycans. […] All these factors contribute to the formation of the trans-glycosylation product. Similarly, Endo-A catalyzed reaction of GlcNAc-RB with the tetrasaccharide oxazoline 2 [7] gave the glycoprotein 45 carrying the core N-linked pentasaccharide Man3GlcNAc2 in 82% yield (Scheme 3). Again, the observed MS (14574.5 Da, from the deconvolution of the ESI-MS data) of the isolated product matches well with the calculated MS (14575.6 Da) of glycoprotein 45. […]

T1 sequence (Q9ZB22 entry or part of it): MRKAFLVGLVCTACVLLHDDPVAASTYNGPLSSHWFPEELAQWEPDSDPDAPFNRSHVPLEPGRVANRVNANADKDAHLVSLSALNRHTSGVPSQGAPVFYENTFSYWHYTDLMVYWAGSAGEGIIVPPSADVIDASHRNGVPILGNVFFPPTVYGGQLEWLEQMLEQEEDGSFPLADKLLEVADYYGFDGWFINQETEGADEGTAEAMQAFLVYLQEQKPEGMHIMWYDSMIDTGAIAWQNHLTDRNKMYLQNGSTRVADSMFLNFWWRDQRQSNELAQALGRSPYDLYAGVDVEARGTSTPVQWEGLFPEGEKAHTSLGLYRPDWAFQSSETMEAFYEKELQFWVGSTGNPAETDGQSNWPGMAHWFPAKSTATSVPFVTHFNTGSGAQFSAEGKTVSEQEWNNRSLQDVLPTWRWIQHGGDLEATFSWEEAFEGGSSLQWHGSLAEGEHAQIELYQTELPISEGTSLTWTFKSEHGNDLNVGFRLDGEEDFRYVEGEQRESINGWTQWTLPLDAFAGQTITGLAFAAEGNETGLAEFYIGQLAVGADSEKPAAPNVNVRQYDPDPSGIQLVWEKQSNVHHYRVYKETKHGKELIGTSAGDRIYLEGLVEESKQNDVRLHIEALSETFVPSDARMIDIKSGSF

As to `CC1=N[C@H]2[C@@H](O1)O[C@H](CO)[C@@H](O[C@@H]1O[C@H](CO)[C@@H](O)[C@H](O)[C@@H]1O)[C@@H]2O` [oxazoline 1], on Endo-A [1], the “donor substrate activity in Endo-A catalyzed transglycosylation” value is “good donor substrates” and the “relative transglycosylation rates (order)” value is on record as “tetrasaccharide oxazoline 2>trisaccharide oxazoline 3>disaccharide oxazoline 1>Bn-substituted disaccharide oxazoline 4”.
As for `CC1=N[C@H]2[C@@H](O1)O[C@H](CO)[C@@H](O[C@@H]1O[C@H](COCc3ccccc3)[C@@H](O)[C@H](O)[C@@H]1O)[C@@H]2O` [oxazoline 4], on Endo-A [1], the “donor substrate activity in Endo-A catalyzed transglycosylation” value was “could still be recognized by Endo-A as a donor substrate”, the “relative transglycosylation rates (order)” value is “tetrasaccharide oxazoline 2>trisaccharide oxazoline 3>disaccharide oxazoline 1>Bn-substituted disaccharide oxazoline 4” and the “donor substrate activity in Endo-A transglycosylation to large acceptor” value was “proceeded successfully”.
On to “O-β-D-Galactopyranosyl-(1→4)-α-D-mannopyranosyl-(1→3)-[β-D-galactopyranosyl-(1→4)-α-D-mannopyranosyl-(1→6)]-β-D-mannopyranosyl-(1β4)-(1,2-dideoxy-α-D-glucopyrano)-[2,1-d]-2-oxazoline [oxazoline 39]”, for which the “donor substrate activity in Endo-A catalyzed transglycosylation” value on Endo-A [1] is given as “excellent substrate”. Also, the “time to essentially complete glycosylation of acceptor 40” value at Endo-A [1] (acceptor Ac-Asn(GlcNAc)-Ile-Thr (40), donor/acceptor 2:1, 23° C., Endo-A 200 mU) is no more than 30 min. Further, the “transglycosylation rate compared with enzymatic hydrolysis of the oxazoline” value at Endo-A [1] (in the presence of a GlcNAc-peptide or protein acceptor) is “much faster”. On Endo-A [2], the “time to complete conversion of GlcNAc-RB” value is given as no more than 2 h.
Take `CC1=NC2C(O1)OC(CO)C(OC1OC(CO)C(O)C(O)C1O)C2O` (stereo not drawn) [oxazoline 5]: at Endo-A [1] (listed as 5), the “donor substrate activity in Endo-A catalyzed transglycosylation” value was “inactive”.
As for `CC1=NC2C(O1)OC(CO)C(OC1OC(CO)C(O)C(O)C1O)C2O` (stereo not drawn) [oxazoline 7, LacNAc-oxazoline, reference compound], on Endo-A [1] (listed as 7), the “donor substrate activity in Endo-A catalyzed transglycosylation” value is reported as “could not be recognized by Endo-A”. The “substrate of Bacillus chitinase” value with Bacillus chitinase is on record as “substrates”.
For `CC(=O)N[C@H]1[C@H](O[C@H]2[C@H](O)[C@H]3N=C(C)O[C@H]3O[C@@H]2CO)O[C@H](CO)[C@@H](O)[C@@H]1O` [oxazoline 6, chitobiose oxazoline, reference compound], on Endo-A [1], the “donor substrate activity in Endo-A catalyzed transglycosylation” value is listed as “could not be recognized by Endo-A”. Further, in the experiment on Bacillus chitinase, the “substrate of Bacillus chitinase” value is “substrates”.
Take `CC1=N[C@H]2[C@@H](O1)O[C@H](CO)[C@@H](O[C@@H]1O[C@H](CO[C@H]3O[C@H](CO)[C@@H](O)[C@H](O)[C@@H]3O)[C@@H](O)[C@H](O)[C@@H]1O)[C@@H]2O` [oxazoline 3]: on Endo-A [1], the “donor substrate activity in Endo-A catalyzed transglycosylation” value is “efficient donor substrate”, the “relative transglycosylation rates (order)” value is “tetrasaccharide oxazoline 2>trisaccharide oxazoline 3>disaccharide oxazoline 1>Bn-substituted disaccharide oxazoline 4” and the “donor substrate activity in Endo-A transglycosylation to large acceptor” value was “proceeded successfully”.

B1: glycoprotein 44: homogeneous ribonuclease B glycoform carrying nonnatural N-glycan Gal2Man3GlcNAc2 at Asn-34 (protein, UniProt P61823 27-150, looked up)
Ribonuclease pancreatic: KETAAAKFERQHMDSSTSAASSSNYCNQMMKSRNLTKDRCKPVNTFVHESLADVQAVCSQKNVACKNGQTNCYQSYSTMSITDCRETGSSKYPNCAYKTTQANKHIIVACEGNPYVPVHFDASV
modifications: Gal2Man3GlcNAc2 N-glycan at Asn-34
Consider B1, for which the “hydrolysis of the ground-state glycopeptide/glycoprotein by Endo-A” value in the experiment with Endo-A [3] is reported as “resistant to Endo-A catalyzed hydrolysis”.
